Patent US20260053778A1, “USE OF NOVEL PPAR ACTIVITY MODULATOR FOR PREVENTION, AMELIORATION OR TREATMENT OF DEGENERATIVE BRAIN DISEASES” (POSTECH RESEARCH AND BUSINESS DEVELOPMENT FOUNDATION, priority 2022, published 2026)

Experiments:
5×FAD mice = test: Western blot and qPCR of APP and β-/γ-secretase in brain tissue; type: in vivo, mouse; conditions: DTMB 10 mg/kg orally
Description: Aβ peptides are generated from amyloid precursor protein (APP) by the action of β- and γ-secretase. It is possible that DTMB acts on APP processing to inhibit the formation of Aβ aggregates. To investigate this possibility, the protein levels of total APP and components of β- and γ-secretase were measured in the hippocampus and cortex using western blot and qPCR.
To investigate the soluble and insoluble Aβ components, two extraction steps were performed. Left hemisphere samples were homogenized at a concentration of 100 mg/mL in cold Tris-buffered saline (TBS consisting of 50 mM Tris-pH 7.5 and 150 mM NaCl) with a protease inhibitor cocktail (Thermo Fisher Scientific, Waltham, MO, USA). After centrifugation at 15,000 rpm for 1 hour at 4° C., the supernatant of the sample was used for western blotting. Insoluble proteins were extracted from the pellet by dissolving in 5 M guanidine buffer (5 M guanidine HCl and 150 mM NaCl-pH 7.5). Soluble and insoluble protein samples were stored at −80° C.
Western blot analysis was performed in the same manner as in Example 2-4 using primary antibodies against nicastrin, pen2 (Cell Signaling Technology, Danvers, MA, USA), Aph1 (Invitrogen), amyloid C-terminal fragment (Santa Cruz Biotechnology, Dallas, TX, USA), and GAPDH (Bethyl Laboratories, Mongomery, TX, USA). Secondary antibodies from rabbit (Promega), rat, and goat (Bethyl Laboratories) were used, and detection was performed using SUPEX ECL reagent (Neuronex, Korea) and ImageQuant LAS-4000 (GE Healthcare, MA, USA) according to the manufacturer's instructions. Integrated blot densities were quantified using ImageJ.

[1] = biological target: T1, HIS-tagged recombinant PPAR γ protein (Homo sapiens, UniProt P37231); test: CNBr-drug and protein binding experiment, PPARγ; conditions: Western blotting after 24 h incubation
T1 sequence (P37231 238-503 limits assumed): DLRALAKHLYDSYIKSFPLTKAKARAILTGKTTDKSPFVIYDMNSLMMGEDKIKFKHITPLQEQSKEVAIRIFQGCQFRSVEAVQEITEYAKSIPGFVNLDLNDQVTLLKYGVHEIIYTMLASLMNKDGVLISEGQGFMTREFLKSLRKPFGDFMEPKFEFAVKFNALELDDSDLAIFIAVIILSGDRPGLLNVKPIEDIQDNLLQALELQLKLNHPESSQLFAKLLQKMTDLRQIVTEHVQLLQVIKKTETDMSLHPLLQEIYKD
Description: Since the computer prediction program predicted that DTMB binds to PPAR transcription factors, CNBr-drug and protein binding experiments were conducted to confirm whether DTMB actually binds to PPAR. To determine the actual degree of drug-protein binding, the reaction of the protein of the PPAR-α, β/δ, γ ligand-binding portion with the DTMB drug-bound CNBr beads was confirmed through Western blotting.
Specifically, CNBr Sepharose 4B beads were prepared and activated according to the instructions. 100 mg of CNBr-activated Sepharose 4B beads were incubated with drugs or DMSO at 4° C. for 18 h. The drug-bound beads reacted with HIS-tagged recombinant PPAR α, β/δ, and γ proteins. After 24 h of incubation, Western blotting experiments were performed to confirm whether the recombinant proteins bound to the drug-bound beads.

[2] = tested on: 5×FAD Alzheimer's dementia-induced mice; test: Y maze test in 5×FAD mice; type: in vivo, mouse; conditions: DTMB 10 mg/kg orally, 12 weeks
Description: 5×FAD (Tg6799) mice were purchased from Jackson Laboratory (Bar Harbor, ME, USA), and male transgenic mice were mated with B6/SJL hybrid female mice. Genotyping was performed by PCR analysis of tail-cut samples. In this example, 8-week-old female mice were used for drug administration, and wild-type littermates were used as controls. All procedures related to animal behavior experiments were approved by the Institutional Animal Care and Use Committee of Pohang University of Science and Technology (POSTECH IACUC). All animal experiments were performed in accordance with the principles of the Animal Welfare Act, the PHS Animal Welfare Policy, and the NIH Guide for the Care and Use of Laboratory Animals. All mice were maintained under general conditions in the POSTECH animal facility according to institutional guidelines.
To evaluate the effect of DTMB on 5×FAD mice, DTMB (10 mg/kg) and vehicle (1% carboxymethylcellulose and 10% DMSO) were orally administered to four groups (wild type, wild type+DTMB, 5×FAD, and 5×FAD+DTMB) 6 days per week for 3 months.
The measuring device consists of three branches, each of which is 42 cm long, 3 cm wide, and 12 cm high, and the angle at which the three branches folded is 120°. […] Alternation behavior is defined as entering all three branches without overlapping and was calculated using the following mathematical formula.

Binding of PPARγ ligand-binding protein to drug-bound CNBr beads [1]: binds to all subtypes of PPAR
Structure (SMILES): COc1ccc(-c2cc(=O)oc3c(C)c(OC(=O)[C@H](Cc4c[nH]c5ccccc45)NC(=O)OC(C)(C)C)ccc23)cc1 [DTMB, [4-(4-Methoxyphenyl)-8-methyl-2-oxochromen-7-yl](2S)-3-(1H-indol-3-yl)-2-[(2-methylpropan-2-yl)oxycarbonylamino]propanoate]
Protein level of β-secretase (5×FAD mice; cortex): slightly decreased
APP protein and mRNA levels (5×FAD mice; hippocampus): no changes
Protein levels of β- and γ-secretase (5×FAD mice; hippocampus): no changes
Alternation behavior (Y maze) [2]: increased statistically significantly
